Measured values published in patent publication US12653796B2, “Compounds for use (in particular RIPA-56) in the prevention and/or treatment of non-alcoholic fatty liver disease” (SORBONNE UNIVERSITE, priority 2019, dated 2026).

Tests used:
[1] = molecular target: T1, receptor-interacting protein kinase 1 (RIPK1) (Homo sapiens, UniProt Q13546); conditions: Ren et al., J Med Chem 2017; cited from earlier work
T1 sequence (Q13546 1-671): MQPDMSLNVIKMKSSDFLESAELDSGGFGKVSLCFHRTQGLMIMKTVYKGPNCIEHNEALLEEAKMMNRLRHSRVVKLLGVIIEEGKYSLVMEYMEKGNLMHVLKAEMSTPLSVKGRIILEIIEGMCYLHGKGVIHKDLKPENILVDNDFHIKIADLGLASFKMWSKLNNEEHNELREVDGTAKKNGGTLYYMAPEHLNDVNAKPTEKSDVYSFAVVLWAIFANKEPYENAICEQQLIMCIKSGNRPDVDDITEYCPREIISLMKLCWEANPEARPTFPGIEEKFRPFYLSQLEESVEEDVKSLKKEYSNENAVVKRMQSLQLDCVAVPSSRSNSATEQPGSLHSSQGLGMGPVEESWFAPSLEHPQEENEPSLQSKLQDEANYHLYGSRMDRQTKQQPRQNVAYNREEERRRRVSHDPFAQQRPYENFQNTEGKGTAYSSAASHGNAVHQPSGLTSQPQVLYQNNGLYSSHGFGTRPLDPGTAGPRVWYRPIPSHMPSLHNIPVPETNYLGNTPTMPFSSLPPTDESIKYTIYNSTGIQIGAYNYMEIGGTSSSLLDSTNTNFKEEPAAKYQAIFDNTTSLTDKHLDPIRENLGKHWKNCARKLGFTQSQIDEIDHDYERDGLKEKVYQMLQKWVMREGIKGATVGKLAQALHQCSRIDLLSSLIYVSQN

RIPK1 = experiment: ELISA of RIPK1 released in supernatant of L929 cells exposed to TNFα; type: cell-based, murine; conditions: 20 μM, 2 h, then TNFα (25 ng/mL) 6 h
Description: FIG. 12. […] Results are shown as mean±SEM of six replicates.
L929 cells (LGC Standards, Molsheim, France), were cultured in Dulbecco's modified Eagle's medium (DMEM) (ThermoFisher, Massachusetts, USA) supplemented with 10% fetal bovine serum (Eurobio, Courtaboeuf, France), penicillin (100 IU/ml), streptomycin (0.1 mg/ml), and L-glutamine (0.03%) (ThermoFisher). […] AML-12 (alpha mouse liver-12) hepatocytes (LGC Standards) were cultured in DMEM/F12 Medium (ThermoFisher) supplemented with 10% fetal bovine serum (Eurobio), 10 μg/ml insulin, 5.5 μg/ml transferrin, 5 ng/ml selenium and 40 ng/ml dexamethasone (Sigma, Missouri, USA). AML-12 hepatocytes were stimulated with insulin (#I0516, 10 nM; Sigma) for 15 minutes.
Protein concentrations of human RIPK1 (SEE640Hu; Could-Clone Corp., Texas, USA), human MLKL (SER645Hu; Could-Clone Corp.) and murine RIPK1 (CSB-EL019735MO; Cusabio, Texas, USA) were determined by an ELISA kit according to the manufacturer's instructions.

MLKL = experiment: Western blot of MLKL phosphorylation/activation in TNF-treated L929 cells; type: cell-based; conditions: within hours
Description: FIG. 1. RIPA-56 prevents RIPK1-dependent cell death in L929 cells upon caspase inhibition and TNF stimulation. L929 cells were treated with RIPA-56 (20 μM), Nec-1 (20 μM) or vehicle for 2 h, prior to incubation with or without TNF (50 ng/mL), and analyzed for (A) morphology and (B) cell survival using MTT assay, after 20 h incubation with or without TNF; (C) Western blot analyses at different time points of incubation with TNF. Results are shown as mean±SEM; n.s., not significant; ****p<0.0001. Data are representative of three independent experiments.
L929 cells (LGC Standards, Molsheim, France), were cultured in Dulbecco's modified Eagle's medium (DMEM) (ThermoFisher, Massachusetts, USA) supplemented with 10% fetal bovine serum (Eurobio, Courtaboeuf, France), penicillin (100 IU/ml), streptomycin (0.1 mg/ml), and L-glutamine (0.03%) (ThermoFisher). […]
Tissue samples were homogenized in NP-40 lysis buffer using a tissue grind pestle (Kimble, Rockwood, USA) or with a bead ruptor 12 (Omni International, Georgia, USA) to obtain protein lysates. Thirty μg of protein extracts from cells or tissue homogenates were separated by SDS-PAGE, transferred to polyvinylidene difluoride membrane and analyzed by immunoblotting. […]

CCC(C)(C)C(=O)N(O)Cc1ccccc1 [RIPA-56, N-Benzyl-N-hydroxy-2,2-dimethylbutanamide]
RIPK1 inhibitor profile [1]: selective and metabolically stable inhibitor | RIPK1 in the supernatant (RIPK1): undetectable | phosphorylation and activation of MLKL (MLKL): inhibited
